Data taken from patent US8062996B2, “Plant glutamate receptors” (priority 1995, dated 2011).

Tests used:
ASN1 mRNA = ASN1 mRNA levels by Northern blot (relief of sucrose repression); format: in vivo, Arabidopsis; conditions: for relief of sucrose repression of ASN1 mRNA: 3% sucrose, dark 2 d; for induction of ASN1 mRNA: average of two Northern blot experiments, densitometry
Experimental: FIG. 12A. Arabidopsis seeds were grown on plates containing MS medium plates 3% (w/v) Suc under 16-h light/8-h dark cycle for 2-3 weeks. The plants were then transferred to media described below and grown in complete darkness for 2d. All samples containing 3% sucrose except for lane 2. MS was supplemented with kainate (lane 4:0.3 mM and lane 5: 0.03 mM), 0.05% (w/v) glutamate (lanes 6 and 7), and 10 μM DNQX (lanes 7 and 8). The expression of ASN1 and a control gene were detected by northern analyses on duplicate blots (under high-stringency conditions in 50% [v/v] formamide-solution), 20 μg of total RNA was used for each lane.
FIG. 12B. Quantitation of the Northern blot results in (A) by densitometry scan.
FIG. 12C. Average folds of induction in two Northern blot experiments.
The ability of a iGluR agonist to mimic the glutamate-stimulated expression of nitrogen assimilatory genes in Arabidopsis was tested using low concentrations of agonist KA and monitoring ASN1 mRNA levels as a measure of gene induction by KA.
ASN1 mRNA accumulates to high levels specifically in dark-treated plants (FIG. 12A, lane 2), and is repressed by light (FIG. 12A, lane 1) or sucrose (FIG. 12A, lane 3). […] ASN1 mRNA levels are determined by Northern blot analysis.

[1] = system: Arabidopsis wild-type seedlings; assay: Survival of wild-type seedlings on high-dose kainate; format: in vivo; conditions: 12 mM kainate
Experimental: FIGS. 28A and 28B. Selection of Arabidopsis mutants resistant to the iGluR agonist Kainate. […] This is not unexpected as high doses of the iGluR agonist kainate function as a neurotoxin in animals. Arabidopsis mutants with putative defects in the KA binding site of iGluR were selected for the ability to grow in the presence of 12 mM kainate. […] Note the one KA-resistant plant is enlarged in FIG. 28B.
Arabidopsis mutants resistant to the iGluR agonist Kainate were selected. […] This is not unexpected as high doses of the iGluR agonist kainate function as a neurotoxin in animals. Arabidopsis mutants with putative defects in the KA binding site of iGluR were selected by selecting for mutants able to grow in the presence of 12 mM kainate. The ems mutagenized Arabidopsis M2 seedlings were sown on 12 mM kainate. Note the one KA-resistant plant is enlarged in FIG. 28B.

Arabidopsis [2] = assay: Plant growth assay: root length on vertical tissue culture plates; format: in vivo
Experimental: Arabidopsis seeds were grown on MS+3% sucrose vertical tissue culture plates containing various amounts of kainate (FIG. 11A) or DNQX (FIG. 11B), with (white bars) or without (black bars) glutamate supplementation. The effects of each drug on plant growth were assayed by measuring root length after two week. The results were discussed in text.
The following assay may be utilized in order to screen drugs for their effects on plant growth mediated by the GluR. Arabidopsis seedlings expressing or overexpressing the GluR are treated with the potential agonist or antagonist. In this plant growth assay, Arabidopsis seeds are plated on tissue culture plates in MS Medium (Murashige and Skoog Salt Mixture-plant basic medium available from Gibco (BRL)). A dose-response curve is determined using various concentrations of the potential agonist or antagonist added to the medium. The plants are grown vertically in a growth chamber at 22° C. with a 16 hour light/8 hour dark cycle for two weeks. The effects of each herbicide on plant growth is assessed by measuring root length on vertical tissue culture plates.
A dose-response curve using various concentrations of KA or DNQX was performed and the effects of each drug on plant growth was determined by measuring root length on vertical tissue culture plates (see FIG. 11).

Arabidopsis [3] = assay: Germination of Arabidopsis in the dark; format: in vivo
From the text: FIG. 23. Effects of kainate of germination of Arabidopsis in the dark.
Kainate inhibition of germination in the dark is reversed by glutamate. Plants germinated in the dark on “normal” MS media (MS) as a positive control. Kainate, the iGluR agonist, causes a specific inhibition of germination of plants grown in MS media containing KA. The inhibition of germination by KA is reversed by the addition of glutamate to the media (MS+KA+Glu) (FIG. 23). Germination involves a light signal. Dark-grown seedlings are sown in the light and transferred to the dark. […] High doses of KA an agonist of iGluR in animals functions as a neurotoxin.
The effects of kainate on germination of Arabidopsis in the dark was determined.

Compound | relief of sucrose repression of ASN1 mRNA (ASN1 mRNA; 0.05% (w/v) glutamate) | induction of ASN1 mRNA (ASN1 mRNA) | relief of sucrose repression of ASN1 mRNA (ASN1 mRNA; KA 300 uM and 30 μM) | lethality to wild-type seedlings [1] | root growth (Arabidopsis [2]; high concentrations of agonist or antagonist, without glutamate) | effect of high doses on root growth with glutamate supplementation (Arabidopsis [2]; high doses plus glutamate) | effect on plant growth (root length) (Arabidopsis [2]; low concentrations, 0 to 0.3 mM KA, two weeks) | germination of dark-grown seedlings (Arabidopsis [3]; kainate 200-400 uM) | inhibition of germination with glutamate supplementation (Arabidopsis [3]; kainate plus glutamate in growth media)
N[C@@H](CCC(=O)O)C(=O)O [glutamate] | able to partially relieve this sucrose repression | roughly 2 fold | – | – | – | – | – | – | –
C=C(C)[C@H]1CN[C@H](C(=O)O)[C@H]1CC(=O)O [KA, kainic acid] | – | roughly 2 fold | able to relieve the sucrose repression of ASN1 mRNA | kill wild-type seedlings | reduction in root growth | at least partially reversed by glutamate supplementation | no adverse effects on plant growth | significant inhibition of germination | specifically reversed by the supplementation of glutamate
